# Experimental data reported in patent US20220395487A1, “RIG-I INNATE IMMUNE RECEPTOR ANTAGONISTS AND METHODS OF USING SAME” (YALE UNIVERSITY, priority 2019, published 2022).
# Biological target: T1, RIG-I (Homo sapiens, UniProt O95786)
# T1 sequence (O95786 1-925): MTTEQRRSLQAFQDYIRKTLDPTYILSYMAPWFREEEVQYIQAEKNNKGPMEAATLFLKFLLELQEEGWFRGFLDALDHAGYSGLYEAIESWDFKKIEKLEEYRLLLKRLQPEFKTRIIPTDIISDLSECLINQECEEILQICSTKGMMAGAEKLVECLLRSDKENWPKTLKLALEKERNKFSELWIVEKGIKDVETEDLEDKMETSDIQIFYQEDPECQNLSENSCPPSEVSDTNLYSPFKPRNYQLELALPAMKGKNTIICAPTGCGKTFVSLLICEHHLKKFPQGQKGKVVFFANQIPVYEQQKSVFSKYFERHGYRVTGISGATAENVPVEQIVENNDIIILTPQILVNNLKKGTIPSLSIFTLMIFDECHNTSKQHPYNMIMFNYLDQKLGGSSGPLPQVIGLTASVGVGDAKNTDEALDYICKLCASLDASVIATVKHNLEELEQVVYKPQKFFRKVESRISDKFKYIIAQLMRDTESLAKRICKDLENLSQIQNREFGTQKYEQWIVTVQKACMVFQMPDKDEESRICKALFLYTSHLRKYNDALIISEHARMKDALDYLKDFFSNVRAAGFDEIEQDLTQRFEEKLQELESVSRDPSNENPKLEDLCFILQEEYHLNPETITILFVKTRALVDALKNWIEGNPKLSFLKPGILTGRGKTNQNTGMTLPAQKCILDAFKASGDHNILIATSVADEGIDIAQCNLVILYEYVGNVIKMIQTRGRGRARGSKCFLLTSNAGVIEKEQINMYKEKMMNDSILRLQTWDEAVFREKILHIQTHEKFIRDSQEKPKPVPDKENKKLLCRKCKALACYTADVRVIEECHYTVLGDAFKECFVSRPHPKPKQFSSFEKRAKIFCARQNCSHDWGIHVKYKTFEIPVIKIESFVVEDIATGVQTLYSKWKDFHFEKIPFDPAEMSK
# Test: qRT-PCR of IFN and ISG levels in A549 cells with endogenous RIG-I
# Format: cell-based
# Settings: SLR14 challenge, qRT-PCR normalized to HPRT
# Experimental: In the second assay, inhibition of RIG-I that is endogenously expressed in A549 cells was evaluated by monitoring IFN and ISG levels by qRT-PCR. A549 cells were propagated in T75 flasks containing Dulbecco's Modified Eagle Medium, DMEM, (Life Technologies) supplemented with 10% heat-inactivated fetal bovine serum (Hyclone) and Non-Essential Amino Acids (Life Technologies). For the assay, 0.5 ml of cells at 100,000 cells/ml was seeded in 24-well plates. After 24 h, DMEM growth media was replaced with media containing drug, as described above for the IFN induction assay using HEK293T cells. After 30 minutes, the cells were transfected with 1 μg of the synthetic stem-loop RNA (SLR14), using the Lipofectamine 2000 transfection reagent. After 5-6 hours, cells were harvested and total RNA was isolated using E.Z.N.A total RNA isolation kit (Omega Bio-tek), following the manufacturer's instructions. Genomic DNA contamination was removed by DNase I treatment (Omega Bio-tek) directly on the Mini column. Total RNA was reverse-transcribed into cDNA using iScript Reverse Transcription Supermix (Bio-RAD) according to the manufacturer's instructions. […] Each sample was analyzed in triplicate and normalized to HPRT expression. Gene expression quantification was performed according to the Livak ΔΔCt method.
smiles,measurement,value
"CCC1(CC)C(=O)N=C2C1=C(OCc1ccccc1)C(=O)c1ccccc12 [RIG012, 4-Benzyloxy-3,3-diethyl-2H,3H,5H-benzo[g]indole-2,5-dione]",effect on IFN-β and ISG hRsad2 expression,"potent, dose-dependent effect"
